Test results as given in PubChem BioAssay (NCI).
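Results reflect a 48-hour exposure of cells in 96-well plates to compound at five concentrations. TGI: concentration producing complete growth inhibition.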

Assays:
Assay in all cases: DTP human tumour cell line panel, 48 h
NCI-H23 lung = test system: NCI-H23 lung
SK-MEL-28 melanoma = test system: SK-MEL-28 melanoma
SNB-19 CNS = test system: SNB-19 CNS
NCI-H226 lung = test system: NCI-H226 lung
KM12 colon = test system: KM12 colon
SF-295 CNS = test system: SF-295 CNS
CCRF-CEM leukemia = test system: CCRF-CEM leukemia
HOP-92 NSCLC = test system: HOP-92 NSCLC
LXFL 529 NSCLC = test system: LXFL 529 NSCLC
HOP-62 NSCLC = test system: HOP-62 NSCLC
IGROV1 ovarian = test system: IGROV1 ovarian
ACHN renal = test system: ACHN renal
SK-MEL-5 melanoma = test system: SK-MEL-5 melanoma
OVCAR-3 ovarian = test system: OVCAR-3 ovarian
OVCAR-8 ovarian = test system: OVCAR-8 ovarian
DMS 114 small cell lung = test system: DMS 114 small cell lung
NCI-H460 lung = test system: NCI-H460 lung
HL-60(TB) leukemia = test system: HL-60(TB) leukemia
SK-OV-3 ovarian = test system: SK-OV-3 ovarian
HOP-18 NSCLC = test system: HOP-18 NSCLC
OVCAR-5 ovarian = test system: OVCAR-5 ovarian
HCT-116 colon = test system: HCT-116 colon
COLO 205 colon = test system: COLO 205 colon
HT29 colon = test system: HT29 colon
MOLT-4 leukemia = test system: MOLT-4 leukemia
HCT-15 colon = test system: HCT-15 colon
SNB-75 CNS = test system: SNB-75 CNS
A549 NSCLC = test system: A549 NSCLC
LOX IMVI melanoma = test system: LOX IMVI melanoma
K-562 leukemia = test system: K-562 leukemia
786-0 renal = test system: 786-0 renal
TK-10 renal = test system: TK-10 renal
M14 melanoma = test system: M14 melanoma
UACC-62 melanoma = test system: UACC-62 melanoma
SW-620 colon = test system: SW-620 colon
CAKI-1 renal = test system: CAKI-1 renal
SR leukemia = test system: SR leukemia
MALME-3M melanoma = test system: MALME-3M melanoma
SN12C renal = test system: SN12C renal
RPMI-8226 leukemia = test system: RPMI-8226 leukemia
SF-539 CNS = test system: SF-539 CNS
OVCAR-4 ovarian = test system: OVCAR-4 ovarian
U251 CNS = test system: U251 CNS
M19-MEL melanoma = test system: M19-MEL melanoma
RXF-631 renal = test system: RXF-631 renal
UO-31 renal = test system: UO-31 renal
SNB-78 CNS = test system: SNB-78 CNS
KM20L2 colon = test system: KM20L2 colon
NCI-H522 lung = test system: NCI-H522 lung
SK-MEL-2 melanoma = test system: SK-MEL-2 melanoma
SF-268 CNS = test system: SF-268 CNS
DLD-1 colon = test system: DLD-1 colon
UACC-257 melanoma = test system: UACC-257 melanoma
DMS 273 small cell lung = test system: DMS 273 small cell lung
RXF 393 renal = test system: RXF 393 renal
EKVX NSCLC = test system: EKVX NSCLC

With `COc1ccc(N2C(=O)/C(=C/c3ccc(N(CCC#N)CCC#N)cc3C)N=C2/C=C\c2ccccc2)cc1` the TGI (NCI-H23 lung) was over 100 µM, the TGI (SK-MEL-28 melanoma) was over 100 µM and the TGI (SNB-19 CNS) was over 100 µM. It also gave a TGI (NCI-H226 lung) of over 100 µM, a TGI (KM12 colon) of over 100 µM and a TGI (SF-295 CNS) of over 100 µM. It also gave a TGI (CCRF-CEM leukemia) of over 100 µM, a TGI (HOP-92 NSCLC) of over 100 µM and a TGI (LXFL 529 NSCLC) of over 100 µM. It also gave a TGI (HOP-62 NSCLC) of 69.6 µM, a TGI (IGROV1 ovarian) of over 100 µM and a TGI (ACHN renal) of over 100 µM. It also gave a TGI (SK-MEL-5 melanoma) of over 100 µM, a TGI (OVCAR-3 ovarian) of over 100 µM and a TGI (OVCAR-8 ovarian) of over 100 µM. The TGI (DMS 114 small cell lung) was over 100 µM, the TGI (NCI-H460 lung) was over 100 µM and the TGI (HL-60(TB) leukemia) was over 100 µM. The TGI (SK-OV-3 ovarian) was over 100 µM, the TGI (HOP-18 NSCLC) was over 100 µM and the TGI (OVCAR-5 ovarian) was over 100 µM. For the same molecule, the TGI (HCT-116 colon) was over 100 µM, the TGI (COLO 205 colon) was 92 µM and the TGI (HT29 colon) was over 100 µM. For the same molecule, the TGI (MOLT-4 leukemia) was over 100 µM, the TGI (HCT-15 colon) was over 100 µM and the TGI (SNB-75 CNS) was over 100 µM. For the same molecule, the TGI (A549 NSCLC) was over 100 µM, the TGI (LOX IMVI melanoma) was over 100 µM and the TGI (K-562 leukemia) was over 100 µM. For the same molecule, the TGI (786-0 renal) was over 100 µM, the TGI (TK-10 renal) was over 100 µM and the TGI (M14 melanoma) was over 100 µM. It also gave a TGI (UACC-62 melanoma) of 60.7 µM, a TGI (SW-620 colon) of over 100 µM and a TGI (CAKI-1 renal) of over 100 µM. It also gave a TGI (SR leukemia) of over 100 µM, a TGI (MALME-3M melanoma) of over 100 µM and a TGI (SN12C renal) of over 100 µM. It also gave a TGI (RPMI-8226 leukemia) of over 100 µM, a TGI (SF-539 CNS) of 56.9 µM and a TGI (OVCAR-4 ovarian) of over 100 µM. The TGI (U251 CNS) was over 100 µM, the TGI (M19-MEL melanoma) was over 100 µM and the TGI (RXF-631 renal) was over 100 µM. It also gave a TGI (UO-31 renal) of 75 µM, a TGI (SNB-78 CNS) of over 100 µM and a TGI (KM20L2 colon) of 40 µM. The TGI (NCI-H522 lung) was over 100 µM, the TGI (SK-MEL-2 melanoma) was over 100 µM and the TGI (SF-268 CNS) was over 100 µM. The TGI (DLD-1 colon) was over 100 µM and the TGI (UACC-257 melanoma) was over 100 µM.

`O=C1C(c2ccc([N+](=O)[O-])cc2)=[N+]([O-])c2ccc([N+](=O)[O-])cc21` was tested, and the TGI (NCI-H23 lung) was over 100 µM, the TGI (SK-MEL-28 melanoma) was over 100 µM and the TGI (SNB-19 CNS) was over 100 µM. The TGI (NCI-H226 lung) was over 100 µM, the TGI (KM12 colon) was over 100 µM and the TGI (SF-295 CNS) was over 100 µM. For the same molecule, the TGI (CCRF-CEM leukemia) was 74.1 µM, the TGI (LXFL 529 NSCLC) was over 100 µM and the TGI (IGROV1 ovarian) was 76.9 µM. The TGI (ACHN renal) was over 100 µM, the TGI (SK-MEL-5 melanoma) was over 100 µM and the TGI (OVCAR-3 ovarian) was 55.8 µM. It also gave a TGI (OVCAR-8 ovarian) of over 100 µM, a TGI (DMS 114 small cell lung) of over 100 µM and a TGI (NCI-H460 lung) of over 100 µM. The TGI (HL-60(TB) leukemia) was 43.7 µM, the TGI (SK-OV-3 ovarian) was 83.2 µM and the TGI (HOP-18 NSCLC) was over 100 µM. For the same molecule, the TGI (OVCAR-5 ovarian) was over 100 µM, the TGI (DMS 273 small cell lung) was over 100 µM and the TGI (COLO 205 colon) was over 100 µM. It also gave a TGI (HT29 colon) of over 100 µM, a TGI (MOLT-4 leukemia) of over 100 µM and a TGI (SNB-75 CNS) of over 100 µM. It also gave a TGI (A549 NSCLC) of over 100 µM, a TGI (LOX IMVI melanoma) of over 100 µM and a TGI (K-562 leukemia) of over 100 µM. The TGI (786-0 renal) was over 100 µM, the TGI (TK-10 renal) was over 100 µM and the TGI (M14 melanoma) was over 100 µM. The TGI (UACC-62 melanoma) was 47.5 µM, the TGI (SW-620 colon) was over 100 µM and the TGI (SR leukemia) was over 100 µM. For the same molecule, the TGI (RPMI-8226 leukemia) was over 100 µM, the TGI (SF-539 CNS) was over 100 µM and the TGI (OVCAR-4 ovarian) was over 100 µM. It also gave a TGI (U251 CNS) of over 100 µM, a TGI (RXF 393 renal) of over 100 µM and a TGI (M19-MEL melanoma) of 88.2 µM. It also gave a TGI (RXF-631 renal) of over 100 µM, a TGI (UO-31 renal) of over 100 µM and a TGI (SNB-78 CNS) of over 100 µM. For the same molecule, the TGI (SF-268 CNS) was over 100 µM, the TGI (DLD-1 colon) was over 100 µM and the TGI (EKVX NSCLC) was over 100 µM.
